Assay results published in PubChem BioAssay AID1918957 (Molecular Pharmacology Branch, DTP, NCI, 2023).

System: NCI-H1876 complex spheroid viability
Experiment: Anticancer human tumor NCI-H1876 cell line growth inhibition [LSD1];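 further: spheroids exposed to compounds for one week before readout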;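 on viability, T/C: 100% = DMSO vehicle-treated spheroids so lower means fewer viable cells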
Details: for IC50: curve of first compound; for viability, T/C: stronger effect = lower value
How it was run: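 Multicellular complex spheroids of tumor cells with human endothelial cells (HUVEC) and mesenchymal stem cells; the LSD1 inhibitor iadademstat was combined with standard-of-care or investigational agents. Top concentration at or near clinical Cmax, half-log dilutions; final DMSO ≤0.25%.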

[1] = second compound 0.1 µM, first compound 0.0316 µM
[2] = second compound 0.1 µM, first compound 0.1 µM
[3] = second compound 0.1 µM, first compound 0.316 µM
[4] = second compound 0.1 µM, first compound 1 µM
[5] = second compound 0.1 µM, first compound 3.16 µM
[6] = second compound 0.1 µM, first compound 10 µM
[7] = second compound 0.316 µM, first compound 0.0316 µM
[8] = second compound 0.316 µM, first compound 0.1 µM
[9] = second compound 0.316 µM, first compound 0.316 µM
[10] = second compound 0.316 µM, first compound 1 µM
[11] = second compound 0.316 µM, first compound 3.16 µM
[12] = second compound 0.316 µM, first compound 10 µM
[13] = second compound 1 µM, first compound 0.0316 µM
[14] = second compound 1 µM, first compound 0.1 µM
[15] = second compound 1 µM, first compound 0.316 µM
[16] = second compound 1 µM, first compound 1 µM
[17] = second compound 1 µM, first compound 3.16 µM
[18] = second compound 1 µM, first compound 10 µM
[19] = second compound 3.16 µM, first compound 0.0316 µM
[20] = second compound 3.16 µM, first compound 0.1 µM
[21] = second compound 3.16 µM, first compound 0.316 µM
[22] = second compound 3.16 µM, first compound 1 µM
[23] = second compound 3.16 µM, first compound 3.16 µM
[24] = second compound 3.16 µM, first compound 10 µM
[25] = second compound 10 µM, first compound 0.0316 µM
[26] = second compound 10 µM, first compound 0.1 µM
[27] = second compound 10 µM, first compound 0.316 µM
[28] = second compound 10 µM, first compound 1 µM
[29] = second compound 10 µM, first compound 3.16 µM
[30] = second compound 10 µM, first compound 10 µM
[31] = second compound 0.1 µM, first compound 0.00316 µM
[32] = second compound 0.1 µM, first compound 0.01 µM
[33] = second compound 0.316 µM, first compound 0.00316 µM
[34] = second compound 0.316 µM, first compound 0.01 µM
[35] = second compound 1 µM, first compound 0.00316 µM
[36] = second compound 1 µM, first compound 0.01 µM
[37] = second compound 3.16 µM, first compound 0.00316 µM
[38] = second compound 3.16 µM, first compound 0.01 µM
[39] = second compound 10 µM, first compound 0.00316 µM
[40] = second compound 10 µM, first compound 0.01 µM

Q: With CC(C)c1c(-c2ccccc2)nc2c(C#N)c[nH]n2c1=O + NC1CC1c1ccc(-c2cccc(O)c2)cc1 as the compound, how does the IC50 (second compound 0.1 µM) read?
A: Its IC50 is 7.37 µM.

Q: What about the IC50 (second compound 0.316 µM) of the same compound?
A: The IC50 was 7.73 µM.

Q: What about the IC50 (second compound 1 µM) of the same compound?
A: The IC50 was 7.78 µM.

Q: What about the IC50 (second compound 3.16 µM) of the same compound?
A: Its IC50 is 6.29 µM.

Q: What about the IC50 (second compound 10 µM) of the same compound?
A: The IC50 was 4.8 µM.

Q: And the viability, T/C [1]?
A: The viability, T/C was 97.2%.

Q: What about the viability, T/C [2] of the same compound?
A: Its viability, T/C is 96.2%.

Q: What about the viability, T/C [3] of the same compound?
A: The viability, T/C was 97.3%.

Q: What about the viability, T/C [4] of the same compound?
A: The viability, T/C was 93.2%.

Q: And the viability, T/C [5]?
A: Its viability, T/C is 87.2%.

Q: And the viability, T/C [6]?
A: Its viability, T/C is 36.5%.

Q: What about the viability, T/C [7] of the same compound?
A: The viability, T/C was 99.3%.

Q: And the viability, T/C [8]?
A: Its viability, T/C is 102%.

Q: And the viability, T/C [9]?
A: Its viability, T/C is 102%.

Q: And the viability, T/C [10]?
A: The viability, T/C was 111%.

Q: What about the viability, T/C [11] of the same compound?
A: The viability, T/C was 91%.

Q: And the viability, T/C [12]?
A: Its viability, T/C is 38.2%.

Q: And the viability, T/C [13]?
A: The viability, T/C was 102%.

Q: What about the viability, T/C [14] of the same compound?
A: Its viability, T/C is 101%.

Q: What about the viability, T/C [15] of the same compound?
A: The viability, T/C was 101%.

Q: And the viability, T/C [16]?
A: The viability, T/C was 106%.

Q: What about the viability, T/C [17] of the same compound?
A: Its viability, T/C is 98.5%.

Q: What about the viability, T/C [18] of the same compound?
A: The viability, T/C was 36.5%.

Q: What about the viability, T/C [19] of the same compound?
A: Its viability, T/C is 101%.

Q: And the viability, T/C [20]?
A: The viability, T/C was 98.2%.

Q: What about the viability, T/C [21] of the same compound?
A: The viability, T/C was 96.6%.

Q: And the viability, T/C [22]?
A: The viability, T/C was 96.5%.

Q: What about the viability, T/C [23] of the same compound?
A: Its viability, T/C is 87.3%.

Q: What about the viability, T/C [24] of the same compound?
A: Its viability, T/C is 24.8%.

Q: And the viability, T/C [25]?
A: The viability, T/C was 84.7%.

Q: What about the viability, T/C [26] of the same compound?
A: The viability, T/C was 85.7%.

Q: And the viability, T/C [27]?
A: The viability, T/C was 91.2%.

Q: And the viability, T/C [28]?
A: Its viability, T/C is 88%.

Q: What about the viability, T/C [29] of the same compound?
A: Its viability, T/C is 73.2%.

Q: What about the viability, T/C [30] of the same compound?
A: The viability, T/C was 9.44%.

Q: Which results are given for CC1COCCN1c1cc(-c2ccnn2C)c2ccnc(-c3ccn[nH]3)c2n1 (stereo not given) + NC1CC1c1ccc(-c2cccc(O)c2)cc1?
A: IC50 (second compound 0.1 µM): 0.00389 µM; IC50 (second compound 0.316 µM): 0.00377 µM; IC50 (second compound 1 µM): 0.00413 µM; IC50 (second compound 3.16 µM): < 0.00316 µM; IC50 (second compound 10 µM): < 0.00316 µM; viability, T/C [31]: 51.9%; viability, T/C [32]: 41.5%; viability, T/C [1]: 16.5%; viability, T/C [2]: 4.97%; viability, T/C [3]: 3.26%; viability, T/C [4]: 3.75%; viability, T/C [33]: 51.6%; viability, T/C [34]: 41.4%; viability, T/C [7]: 17.6%; viability, T/C [8]: 4.99%; viability, T/C [9]: 3.15%; viability, T/C [10]: 3.99%; viability, T/C [35]: 51.9%; viability, T/C [36]: 43.7%; viability, T/C [13]: 19.2%; viability, T/C [14]: 5.94%; viability, T/C [15]: 3.81%; viability, T/C [16]: 4.68%; viability, T/C [37]: 43%; viability, T/C [38]: 39.5%; viability, T/C [19]: 18.3%; viability, T/C [20]: 5.67%; viability, T/C [21]: 3.74%; viability, T/C [22]: 4.48%; viability, T/C [39]: 37.5%; viability, T/C [40]: 31.5%; viability, T/C [25]: 16.8%; viability, T/C [26]: 6.91%; viability, T/C [27]: 4.75%; viability, T/C [28]: 5.76%

Q: Which results are given for COc1ccc([C@@H](O)c2cc(-c3ncnc4cc(N5CCOCC5)ccc34)c(F)cc2Cl)nn1 + NC1CC1c1ccc(-c2cccc(O)c2)cc1?
A: IC50 (second compound 0.1 µM): 1.87 µM; IC50 (second compound 0.316 µM): 1.89 µM; IC50 (second compound 1 µM): 1.73 µM; IC50 (second compound 3.16 µM): 1.1 µM; IC50 (second compound 10 µM): 0.546 µM; viability, T/C [1]: 89.6%; viability, T/C [2]: 91.2%; viability, T/C [3]: 87.8%; viability, T/C [4]: 67.8%; viability, T/C [5]: 34.7%; viability, T/C [6]: 9.23%; viability, T/C [7]: 92.5%; viability, T/C [8]: 93.1%; viability, T/C [9]: 86.1%; viability, T/C [10]: 71%; viability, T/C [11]: 33.3%; viability, T/C [12]: 9.61%; viability, T/C [13]: 103%; viability, T/C [14]: 102%; viability, T/C [15]: 88.5%; viability, T/C [16]: 67.5%; viability, T/C [17]: 31.3%; viability, T/C [18]: 9%; viability, T/C [19]: 93.9%; viability, T/C [20]: 91.3%; viability, T/C [21]: 79.3%; viability, T/C [22]: 50%; viability, T/C [23]: 26%; viability, T/C [24]: 6.12%; viability, T/C [25]: 90.3%; viability, T/C [26]: 83.2%; viability, T/C [27]: 58.6%; viability, T/C [28]: 38%; viability, T/C [29]: 17.8%; viability, T/C [30]: 2.16%

Q: What does the source list for Nc1ncn(C2CC(O)C(CO)O2)c(=O)n1 (stereo not given) + NC1CCC(NC2CC2c2ccccc2)CC1?
A: IC50 (second compound 0.1 µM): > 1 µM; IC50 (second compound 0.316 µM): > 1 µM; IC50 (second compound 1 µM): > 1 µM; IC50 (second compound 3.16 µM): > 1 µM; IC50 (second compound 10 µM): > 1 µM; viability, T/C [31]: 104%; viability, T/C [32]: 109%; viability, T/C [1]: 99.7%; viability, T/C [2]: 97.5%; viability, T/C [3]: 98.7%; viability, T/C [4]: 96.2%; viability, T/C [33]: 103%; viability, T/C [34]: 98.8%; viability, T/C [7]: 99.8%; viability, T/C [8]: 98.5%; viability, T/C [9]: 92.5%; viability, T/C [10]: 86.6%; viability, T/C [35]: 102%; viability, T/C [36]: 109%; viability, T/C [13]: 100%; viability, T/C [14]: 97.9%; viability, T/C [15]: 93.5%; viability, T/C [16]: 92.2%; viability, T/C [37]: 98.6%; viability, T/C [38]: 104%; viability, T/C [19]: 102%; viability, T/C [20]: 97.6%; viability, T/C [21]: 92.6%; viability, T/C [22]: 95.8%; viability, T/C [39]: 99.3%; viability, T/C [40]: 100%; viability, T/C [25]: 96.7%; viability, T/C [26]: 106%; viability, T/C [27]: 92.8%; viability, T/C [28]: 97.1%
